# Experimental data taken from patent US20240226106A1, “INHIBITORS OF PLASMA KALLIKREIN” (SHIRE HUMAN GENETIC THERAPIES, INC., priority 2021, published 2024).
# Like-named read-outs stand apart in the source and are kept apart here.
# Legend:
# [1] = target: human activated kallikrein enzyme (Homo sapiens, UniProt P03952); assay: Inhibition of human activated plasma kallikrein, fluorogenic peptide substrate (PFR-AMC), 500 pM enzyme format; format: biochemical; conditions: 500 pM activated kallikrein, 30 min preincubation, 10 min reaction, room temperature, read-out: Primary Dose Response Assay: Average EC50
# In short: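 Enzyme at 500 pM with […] PFR-AMC in 20 mM Tris pH 7.5, 1 mM EDTA, 150 mM NaCl, 0.1% PEG-400, 0.1% Triton X-100. Inhibitor preincubated 30 min, then 10 min reaction at room temperature; AMC fluorescence read at 380 nm excitation/460 nm emission.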
# plasma kallikrein = target: T1, plasma kallikrein (Homo sapiens, UniProt P03952); assay: Neat human plasma assay (fluorogenic peptide), contact pathway-activated plasma; format: biochemical; conditions: read-out: Human Plasma Assay: IC90
# T1 construct: from tissue; host or cells: sodium citrate collected human plasma
# Protocol: To analyze inhibition of plasma kallikrein in an ex vivo setting, the potency of compounds was measure in contact pathway-activated plasma assays. In a fluorogenic peptide substrate assay, test compounds dissolved in DMSO were added to sodium citrate collected human or rat plasma in a 96-well microplate. Alternatively, citrated plasma was collected from rats administered the compounds orally or by IV. 10 nM of human FXIIa (Enzyme Research Laboratories) diluted in PKa buffer (20 mM Tris-HCl, pH 7.5, 150 mM NaCl, 1 mM EDTA, 0.100 PEG-8000, and 0.1% Triton X-100) was added to the plasma, followed by the 100 μM of the profluorescent, synthetic plasma kallikrein substrate PFR-AMC (also diluted in PKa buffer). Final plasma concentration in the reaction was […]. Fluorescence was immediately monitored by excitation/emission wavelengths of 360 nm/480 nm respectively over a period of 5 minutes in a microplate reader. The resulting linear increase in fluorescence emission (reflecting PKa proteolysis of PFR-AMC substrate) was fit to extract a proteolytic rate (fluorescent units over time), and this rate was subsequently plotted against compound inhibitor concentration. Resulting plots were fit to a standard 4-parameter IC50/C90 equation to determine min/max values, IC50/90, and slope. All experimental steps were performed at room temperature.
# [2] = citrated human plasma, 10 nM human FXIIa activation, 100 μM PFR-AMC, room temperature
# Chain of human activated kallikrein enzyme (P03952 391-638 limits assumed): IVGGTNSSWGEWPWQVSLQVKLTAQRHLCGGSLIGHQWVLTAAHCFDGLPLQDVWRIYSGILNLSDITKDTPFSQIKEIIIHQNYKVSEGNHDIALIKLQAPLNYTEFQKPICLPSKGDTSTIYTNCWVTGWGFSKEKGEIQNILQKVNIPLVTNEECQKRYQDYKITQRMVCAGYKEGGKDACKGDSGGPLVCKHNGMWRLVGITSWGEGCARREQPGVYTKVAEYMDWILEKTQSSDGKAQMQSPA
# Chain of human activated kallikrein enzyme (P03952 20-390 partner limits assumed): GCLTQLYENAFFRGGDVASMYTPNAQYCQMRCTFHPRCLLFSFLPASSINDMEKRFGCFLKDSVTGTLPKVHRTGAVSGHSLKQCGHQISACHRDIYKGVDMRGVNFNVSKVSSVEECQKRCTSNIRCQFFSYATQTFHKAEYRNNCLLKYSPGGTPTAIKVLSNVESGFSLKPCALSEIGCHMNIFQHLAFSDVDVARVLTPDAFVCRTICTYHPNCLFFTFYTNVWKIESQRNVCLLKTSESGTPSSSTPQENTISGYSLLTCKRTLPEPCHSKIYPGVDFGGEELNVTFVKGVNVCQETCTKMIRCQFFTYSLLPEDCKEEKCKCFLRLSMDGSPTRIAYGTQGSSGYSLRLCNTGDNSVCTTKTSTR
# T1 sequence (P03952 391-638 limits assumed): as the sequence (P03952 391-638 limits assumed) above
# T1 sequence (P03952 20-390 partner limits assumed): as the sequence (P03952 20-390 partner limits assumed) above
EC50 [1] [nM],IC90 (plasma kallikrein; [2]) [nM],SMILES,IC90 (plasma kallikrein) [nM]
< 2.5,< 500,"Cc1ccnc([C@H]2C[C@@H]2C(=O)Nc2cc(NCc3cc4cc(C5CC5)cc(N5CC(=O)N(C)C5=O)n4n3)ncn2)n1 [Example 101, (1S,2S)—N-(6-(((5-cyclopropyl-7-(3-methyl-2,4-dioxoimidazolidin-1-yl)pyrazolo[1,5-a]pyridin-2-yl)methyl)amino)pyrimidin-4-yl)-2-(4-methylpyrimidin-2-yl)cyclopropane-1-carboxamide]",–
< 2.5,500 to 5000,"O=C(Nc1cc(NCc2cn3cc(C4CC4)cnc3n2)ncn1)[C@H]1C[C@@H]1c1cc(Cl)ccn1 [Example 66, (1S,2S)-2-(4-chloropyridin-2-yl)-N-(6-(((6-cyclopropylimidazo[1,2-a]pyrimidin-2-yl)methyl)amino)pyrimidin-4-yl)cyclopropane-1-carboxamide]",–
2.5 to 25,500 to 5000,"Cc1ccnc([C@H]2C[C@@H]2C(=O)Nc2cc(N3C[C@@H](O)C[C@@H]3c3cn4cc(C5CC5)cnc4n3)ncn2)c1 (single isomer, unassigned) [Example 75, (1S*,2S*)—N-(6-((2R,4S)-2-(6-cyclopropylimidazo[1,2-a]pyrimidin-2-yl)-4-hydroxypyrrolidin-1-yl)pyrimidin-4-yl)-2-(4-methylpyridin-2-yl)cyclopropane-1-carboxamide]",–
< 2.5,< 500,"Cc1ccnc([C@H]2C[C@@H]2C(=O)Nc2cc(N(C)Cc3cn4cc(C5CC5)nc(N5CC(=O)N(C)C5=O)c4n3)ncn2)n1 [Example 83, (1S,2S)—N-(6-(((6-cyclopropyl-8-(3-methyl-2,4-dioxoimidazolidin-1-yl)imidazo[1,2-a]pyrazin-2-yl)methyl)(methyl)amino)pyrimidin-4-yl)-2-(4-methylpyrimidin-2-yl)cyclopropane-1-carboxamide]",–
< 2.5,< 500,"Cc1ccnc([C@H]2C[C@@H]2C(=O)Nc2cc(N(C)Cc3cn4cc(C5CC5)nc(N5CCCC5=O)c4n3)ncn2)n1 [Example 85, (1S,2S)—N-(6-(((6-cyclopropyl-8-(2-oxopyrrolidin-1-yl)imidazo[1,2-a]pyrazin-2-yl)methyl)(methyl)amino)pyrimidin-4-yl)-2-(4-methylpyrimidin-2-yl)cyclopropane-1-carboxamide]",–
< 2.5,500 to 5000,"Cc1ccnc([C@H]2C[C@@H]2C(=O)Nc2cc(N3C[C@@H](O)C[C@@H]3c3cn4cc(C5CC5)cnc4n3)ncn2)n1 (relative stereo) [Example 72, rac-(1S*,2S*)—N-(6-((2R,4S)-2-(6-cyclopropylimidazo[1,2-a]pyrimidin-2-yl)-4-hydroxypyrrolidin-1-yl)pyrimidin-4-yl)-2-(4-methylpyrimidin-2-yl)cyclopropane-1-carboxamide]",–
< 2.5,< 500,"O=C(Nc1cc(N2C[C@@H](O)C[C@@H]2c2cn3cc(C4CC4)cnc3n2)ncn1)[C@H]1C[C@@H]1c1cc(Cl)ccn1 [Example 73, (1S,2S)-2-(4-chloropyridin-2-yl)-N-(6-((2R,4S)-2-(6-cyclopropylimidazo[1,2-a]pyrimidin-2-yl)-4-hydroxypyrrolidin-1-yl)pyrimidin-4-yl)cyclopropane-1-carboxamide]",–

# Second part, the molecule before the results:
SMILES,EC50 [1] [nM],IC90 (plasma kallikrein; [2]) [nM],IC90 (plasma kallikrein) [nM]
"O=C(Nc1cc(NCc2cc3cc(C4CC4)cc(N4CCOC4=O)n3n2)ncn1)[C@H]1C[C@@H]1c1cc(Cl)ccn1 (racemic) [Example 56, rac-(1S*,2S*)-2-(4-chloropyridin-2-yl)-N-(6-(((5-cyclopropyl-7-(2-oxooxazolidin-3-yl)pyrazolo[1,5-a]pyridin-2-yl)methyl)amino)pyrimidin-4-yl)cyclopropane-1-carboxamide]",< 2.5,5000 to 65000,–
"O=C(Nc1cc(N2C[C@@H](O)C[C@@H]2c2cn3nc(C4CC4)ccc3n2)ncn1)[C@H]1C[C@@H]1c1cccc(Cl)c1 [Example 60, (1S,2S)-2-(3-chlorophenyl)-N-(6-((2R,4S)-2-(6-cyclopropylimidazo[1,2-b]pyridazin-2-yl)-4-hydroxypyrrolidin-1-yl)pyrimidin-4-yl)cyclopropane-1-carboxamide]",2.5 to 25,500 to 5000,–
"N#Cc1ccc(Cl)cc1[C@H]1C[C@@H]1C(=O)Nc1cc(NCc2nc3ncc(C4CC4)cn3n2)ccn1 (racemic) [Example 42, rac-(1S*,2S*)-2-(5-chloro-2-cyanophenyl)-N-(4-(((6-cyclopropyl-[1,2,4]triazolo[1,5-a]pyrimidin-2-yl)methyl)amino)pyridin-2-yl)cyclopropane-1-carboxamide]",< 2.5,500 to 5000,–
"CN1CCN(c2cc(C3CC3)nn3cc(CNc4ccnc(NC(=O)[C@H]5C[C@@H]5c5cccc(Cl)c5)c4)nc23)CC1 [Example 40, (1S,2S)-2-(3-chlorophenyl)-N-(4-(((6-cyclopropyl-8-(4-methylpiperazin-1-yl)imidazo[1,2-b]pyridazin-2-yl)methyl)amino)pyridin-2-yl)cyclopropane-1-carboxamide]",< 2.5,500 to 5000,–
"Cc1ccnc([C@H]2C[C@@H]2C(=O)Nc2cc(OCc3cn4cc(C5CC5)cnc4n3)cnn2)n1 [Example 94, (1S,2S)—N-(5-((6-cyclopropylimidazo[1,2-a]pyrimidin-2-yl)methoxy)pyridazin-3-yl)-2-(4-methylpyrimidin-2-yl)cyclopropane-1-carboxamide]",< 2.5,< 500,–
"Cc1ccnc([C@H]2C[C@@H]2C(=O)Nc2cc(NCc3cc4cc(C5CC5)cc(N5CC(=O)N(C)C5=O)n4n3)nc(C)n2)n1 [Example 99, (1S,2S)—N-(6-(((5-cyclopropyl-7-(3-methyl-2,4-dioxoimidazolidin-1-yl)pyrazolo[1,5-a]pyridin-2-yl)methyl)amino)-2-methylpyrimidin-4-yl)-2-(4-methylpyrimidin-2-yl)cyclopropane-1-carboxamide]",< 2.5,–,< 500
"CN1CCN(c2cc(C3CC3)cc3cc(CNc4cc(NC(=O)[C@H]5C[C@@H]5c5cccc(Cl)c5)ncn4)nn23)CC1 [Example 53, (1S,2S)-2-(3-chlorophenyl)-N-(6-(((5-cyclopropyl-7-(4-methylpiperazin-1-yl)pyrazolo[1,5-a]pyridin-2-yl)methyl)amino)pyrimidin-4-yl)cyclopropane-1-carboxamide]",< 2.5,500 to 5000,–
"CN1C(=O)CN(c2cc(C3CC3)nn3cc(CNc4cc(NC(=O)[C@H]5C[C@@H]5c5cc(Cl)ccn5)ncn4)nc23)C1=O [Example 63, (1S,2S)-2-(4-chloropyridin-2-yl)-N-(6-(((6-cyclopropyl-8-(3-methyl-2,4-dioxoimidazolidin-1-yl)imidazo[1,2-b]pyridazin-2-yl)methyl)amino)pyrimidin-4-yl)cyclopropane-1-carboxamide]",< 2.5,500 to 5000,–
"Cc1ccnc([C@H]2C[C@@H]2C(=O)Nc2nncc(N[C@H](C)c3cc4cc(C5CC5)cc(N5CC(=O)N(C)C5=O)n4n3)n2)n1 (single isomer, unassigned) [Example 102]",< 2.5,< 500,–
"O=C(Nc1cc(NCc2cc3cc(C4CC4)cc(N4CCCC4=O)n3n2)ncn1)[C@H]1C[C@@H]1c1cccc(Cl)c1 [Example 52, (1S,2S)-2-(3-chlorophenyl)-N-(6-(((5-cyclopropyl-7-(2-oxopyrrolidin-1-yl)pyrazolo[1,5-a]pyridin-2-yl)methyl)amino)pyrimidin-4-yl)cyclopropane-1-carboxamide]",2.5 to 25,500 to 5000,–
